Patent US7374901B2, “Method of analyzing coenzyme Q-10 and two-electron reduction product thereof and analysis system” (Shiseido Company Ltd., priority 2002, dated 2008)

How the values were obtained:
[1] = Storage stability of methanol/hexane extraction liquid, conventional pretreatment (FIG. 3); type: physicochemical; details: various storage temperatures (FIG. 3)
Procedure: In this case, since the measurement is influenced by a water-soluble antioxidation substance in the specimen, such as vitamin C and uric acid, etc., a pretreatment is performed for subjecting the specimen to an extraction treatment with methanol/hexane so as to distribute the water-soluble antioxidation substance into a methanol phase and the coenzyme Q-10, etc., into a hexane phase.
It is therefore necessary to perform analysis immediately after the extraction of the specimen. […] Herein, each temperature indicates a storage temperature of the hexane extraction liquid in FIG. 3.

[2] = Storage stability of isopropyl alcohol extracted liquid from human blood plasma (FIG. 5); type: physicochemical; details: isopropyl alcohol extract of human blood plasma, stored at around 4° C., even after at least 11 hours
Procedure: 50 μl of human blood plasma as a specimen is sampled (S-1 in FIG. 4), 950 μl of isopropyl alcohol is added into it (S-2 in FIG. 4), and then they are mixed sufficiently. Subsequently, they are subjected to a centrifugal separator at a rotational speed of 12,000 rpm for 3 minutes and at a temperature of 4° C. Thus, coenzyme Q-10 and a 2-electron reduced form thereof are extracted from the specimen into an isopropyl alcohol phase (S-3 in FIG. 4).
When an extracted liquid into which the coenzyme Q-10, etc., has been extracted is stored at a temperature around 4° C. […] Thus, the alteration of a stored analytical sample can be prevented. Additionally, the longitudinal axis in regard to coenzyme Q-10 in FIG. 5(b) represents the ratio (molar-ratio) of the coenzyme Q-10 occupied in the total quantity of the coenzyme Q-10 and the 2-electron reduced form thereof.

Structure (SMILES) | stability / oxidation in the hexane extraction liquid after pretreatment until injection into HPLC [1] | oxidation of the 2-electron reduced form during storage of the extracted liquid [2]
COC1=C(OC)C(=O)C(C/C=C(\C)CC/C=C(\C)CC/C=C(\C)CC/C=C(\C)CC/C=C(\C)CC/C=C(\C)CC/C=C(\C)CC/C=C(\C)CC/C=C(\C)CCC=C(C)C)=C(C)C1=O [coenzyme Q-10, 2,3-dimethoxy-5-methyl-6-polyprenyl-1,4-benzoquinone] | chemically unstable | 
COc1c(O)c(C)c(C/C=C(\C)CC/C=C(\C)CC/C=C(\C)CC/C=C(\C)CC/C=C(\C)CC/C=C(\C)CC/C=C(\C)CC/C=C(\C)CC/C=C(\C)CCC=C(C)C)c(O)c1OC [2-electron reduced form of coenzyme Q-10] | oxidized at a substantial rate | rarely oxidized
